From patent publication US6376497B1, “Antifungal azole derivatives having a fluorinated vinyl group and process for preparing same” (Korea Research Institute of Chemical Technology, priority 1999, dated 2002)
Values after ≈ are worked out from the molar mass of the structure shown.

What was measured:
Test in all cases: In vitro antifungal activity, microbroth dilution MIC
Assay type in all cases: cell-based
[1] = test system: Trichophyton mentagrophytes A. 9129; settings: 4 to 48 hours; for Minimal inhibitory concentration(MIC), T. mentagrophytes A. 9129: RPMI-1640, 35° C., no growth observed
Procedure: (§1) In vitro antifungal activities of the inventive antifungal compounds were evaluated using the test strains shown in Table VIII by the following microbroth dilution method which is a modified version of the procedure recommended by National Committee for Clinical Laboratory Standards(see National Committee for Clinical Laboratory Standards, 1992, Reference methods for broth dilution antifungal susceptibility testing of yeasts, Proposed standard M27-P, National Committee for clinical laboratory standards, Villanova, Pa; and National Committee for Clinical Laboratory Standards, 1995, Reference methods for broth dilution antifungal susceptibility testing of yeasts. Tentative standard M27-T, National Committee for clinical laboratory standards, Villanova, Pa).
(§2) Sabourad Dextrose Agar(Difco) was used as a culture medium, and RPMI-1640 broth(Sigma. Co. w/L-glutamine, wo/NaHCO3)(0.165 M MOPS, pH 7.0), as a dilution medium.
(§3) Each of the test strains were subcultured in Sabourad Dextrose Agar medium twice and a stain sample was taken from prominent colonies and suspended in sterile physiological saline solution in a cap tube. The turbidity of the suspension was adjusted to that of the Mcfarland 0.5 standard sample(approximately 10^6 CFU/ml). Then the suspension was diluted 500-fold with sterile RPMI-1640 liquid medium to 2×10^3 CFU/ml.
(§4) Each of the test compounds(the compounds obtained in Examples 1 to 150 and comparative compounds, i.e., fluconazole(FCZ) and itraconazole (ICZ)), was dissolved in DMSO to give a stock solution having a concentration of 4000 μg/ml and the stock solution was successively diluted to obtain test solutions having test compound concentrations of 200, 100, 50, 25, 12.5, 6.25, 3.13, 1.56, 0.78, 0.39, 0.20 and 0.10 μg/ml, respectively.
(§5) 0.1 ml portion of the test solutions were added to the wells of a sterile 96 well plate. Then, 0.1 ml portion of each of the test strain solutions were added successively to the wells and the plate was incubated at 35° C. for 4 to 48 hours.
(§6) Minimal inhibitory concentration(MIC) of each compound was defined as the concentration of the test compound where no growth of the strain could be observed.

[2] = test system: Candida albicans C1-2; settings: 4 to 48 hours; for Minimal inhibitory concentration(MIC), C. albicans C1-2: RPMI-1640, 35° C., no growth observed
Procedure: as §1, §2, §3, §4, §5, §6

[3] = test system: Aspergillus furnigatus B. 19119; settings: 4 to 48 hours; for Minimal inhibitory concentration(MIC), A furnigatus B. 19119: RPMI-1640, 35° C., no growth observed
Procedure: as §1, §2, §3, §4, §5, §6

[4] = test system: Cryptococcus neoformans B. 42419; settings: 4 to 48 hours; for Minimal inhibitory concentration(MIC), Cry. neoformans B. 42419: RPMI-1640, 35° C., no growth observed
Procedure: as §1, §2, §3, §4, §5, §6

[5] = test system: Cryptococcus neoformans A. 34144; settings: 4 to 48 hours; for Minimal inhibitory concentration(MIC), Cry. neoformans A. 34144: RPMI-1640, 35° C., no growth observed
Procedure: as §1, §2, §3, §4, §5, §6

[6] = test system: Candida tropicalis A. 13803; settings: 4 to 48 hours; for Minimal inhibitory concentration(MIC), C. tropicalis A. 13803: RPMI-1640, 35° C., no growth observed
Procedure: as §1, §2, §3, §4, §5, §6

[7] = test system: Aspergillus niger A. 16404; settings: 4 to 48 hours; for Minimal inhibitory concentration(MIC), A. niger A. 16404: RPMI-1640, 35° C., no growth observed
Procedure: as §1, §2, §3, §4, §5, §6

[8] = test system: Candida krusei K. 11655; settings: 4 to 48 hours; for Minimal inhibitory concentration(MIC), C. krusei K. 11655: RPMI-1640, 35° C., no growth observed
Procedure: as §1, §2, §3, §4, §5, §6

[9] = test system: Candida albicans IFO. 1385; settings: 4 to 48 hours; for Minimal inhibitory concentration(MIC), C. albicans IFO. 1385: RPMI-1640, 35° C., no growth observed
Procedure: as §1, §2, §3, §4, §5, §6

[10] = test system: Trichophyton mentagrophytes B. 32663; settings: 4 to 48 hours; for Minimal inhibitory concentration(MIC), T. mentagrophytes B. 32663: RPMI-1640, 35° C., no growth observed
Procedure: as §1, §2, §3, §4, §5, §6

[11] = test system: Candida albicans A. 10231; settings: 4 to 48 hours; for Minimal inhibitory concentration(MIC), C. albicans A. 10231: RPMI-1640, 35° C., no growth observed
Procedure: as §1, §2, §3, §4, §5, §6

[12] = test system: Cryptococcus neoformans IFM. 40092; settings: 4 to 48 hours; for Minimal inhibitory concentration(MIC), Cry. neoformans IFM. 40092: RPMI-1640, 35° C., no growth observed
Procedure: as §1, §2, §3, §4, §5, §6

[13] = test system: Candida parapsitosis A. 7330; settings: 4 to 48 hours; for Minimal inhibitory concentration(MIC), C. parapsitosis A. 7330: RPMI-1640, 35° C., no growth observed
Procedure: as §1, §2, §3, §4, §5, §6

[14] = test system: Candida pseudotropicalis K. 11658; settings: 4 to 48 hours; for Minimal inhibitory concentration(MIC), C. pseudotropicalis K. 11658: RPMI-1640, 35° C., no growth observed
Procedure: as §1, §2, §3, §4, §5, §6

[15] = test system: Torulopsis glabrata B. 16205; settings: 4 to 48 hours; for Minimal inhibitory concentration(MIC), T. glabrata B. 16205: RPMI-1640, 35° C., no growth observed
Procedure: as §1, §2, §3, §4, §5, §6

Row | SMILES | Minimal inhibitory concentration(MIC), T. mentagrophytes A. 9129 [1] [µg/mL] | Minimal inhibitory concentration(MIC), C. albicans C1-2 [2] [µg/mL] | Minimal inhibitory concentration(MIC), A furnigatus B. 19119 [3] [µg/mL] | Minimal inhibitory concentration(MIC), Cry. neoformans B. 42419 [4] [µg/mL] | Minimal inhibitory concentration(MIC), Cry. neoformans A. 34144 [5] [µg/mL] | Minimal inhibitory concentration(MIC), C. tropicalis A. 13803 [6] [µg/mL] | Minimal inhibitory concentration(MIC), A. niger A. 16404 [7] [µg/mL] | Minimal inhibitory concentration(MIC), C. krusei K. 11655 [8] [µg/mL] | Minimal inhibitory concentration(MIC), C. albicans IFO. 1385 [9] [µg/mL] | Minimal inhibitory concentration(MIC), T. mentagrophytes B. 32663 [10] [µg/mL] | Minimal inhibitory concentration(MIC), C. albicans A. 10231 [11] [µg/mL] | Minimal inhibitory concentration(MIC), Cry. neoformans IFM. 40092 [12] | Minimal inhibitory concentration(MIC), C. parapsitosis A. 7330 [13] [µg/mL] | Minimal inhibitory concentration(MIC), C. pseudotropicalis K. 11658 [14] [µg/mL] | Minimal inhibitory concentration(MIC), T. glabrata B. 16205 [15] [µg/mL] | further results
1 | Cc1cccc(C=C(F)OCC2COC(Cn3ccnc3)(c3ccc(Cl)cc3Cl)O2)c1 (stereo not drawn) [Ex. 2] | – | – | – | – | – | – | – | – | – | – | – | – | – | – | – | Minimal inhibitory concentration (MIC) ([1]; T. mentagrophytes A. 9129, RPMI-1640, 35° C.): 1.56 µg/mL (≈ 3.37 µM); Minimal inhibitory concentration (MIC) ([2]; C. albicans C1-2, RPMI-1640, 35° C.): 6.25 µg/mL (≈ 13.5 µM); Minimal inhibitory concentration (MIC) ([3]; A furnigatus B. 19119, RPMI-1640, 35° C.): 3.13 µg/mL (≈ 6.76 µM); Minimal inhibitory concentration (MIC) ([4]; Cry. neoformans B. 42419, RPMI-1640, 35° C.): 3.13 µg/mL (≈ 6.76 µM); Minimal inhibitory concentration (MIC) ([5]; Cry. neoformans A. 34144, RPMI-1640, 35° C.): 3.13 µg/mL (≈ 6.76 µM); Minimal inhibitory concentration (MIC) ([6]; C. tropicalis A. 13803, RPMI-1640, 35° C.): 25.0 µg/mL (≈ 54 µM); Minimal inhibitory concentration (MIC) ([7]; A. niger A. 16404, RPMI-1640, 35° C.): 3.13 µg/mL (≈ 6.76 µM); Minimal inhibitory concentration (MIC) ([8]; C. krusei K. 11655, RPMI-1640, 35° C.): 12.5 µg/mL (≈ 27 µM); Minimal inhibitory concentration (MIC) ([9]; C. albicans IFO. 1385, RPMI-1640, 35° C.): 0.78 µg/mL (≈ 1.68 µM); Minimal inhibitory concentration (MIC) ([10]; T. mentagrophytes B. 32663, RPMI-1640, 35° C.): 1.56 µg/mL (≈ 3.37 µM); Minimal inhibitory concentration (MIC) ([11]; C. albicans A. 10231, RPMI-1640, 35° C.): 6.25 µg/mL (≈ 13.5 µM); Minimal inhibitory concentration (MIC) ([12]; Cry. neoformans IFM. 40092, RPMI-1640, 35° C.): 1.56 µg/mL (≈ 3.37 µM); Minimal inhibitory concentration (MIC) ([13]; C. parapsitosis A. 7330, RPMI-1640, 35° C.): 12.5 µg/mL (≈ 27 µM); Minimal inhibitory concentration (MIC) ([14]; C. pseudotropicalis K. 11658, RPMI-1640, 35° C.): 12.5 µg/mL (≈ 27 µM); Minimal inhibitory concentration (MIC) ([15]; T. glabrata B. 16205, RPMI-1640, 35° C.): 6.25 µg/mL (≈ 13.5 µM)
2 | FC(OCC1COC(Cn2cncn2)(c2ccc(Cl)cc2Cl)O1)=C(c1ccc(Cl)cc1)C(F)(F)F (mixture of isomers) [Ex. 86] | >100 | 100 | >100 | 1.56 | 1.56 | >100 | >100 | >100 | 12.5 | >100 | 100 | 0.78 µg/mL | >100 | >100 | >100 | –
3 | Cc1cccc(C(=C(F)N2CCN(c3ccc(OCC4COC(Cn5ccnc5)(c5ccc(F)cc5F)O4)cc3)CC2)C(F)(F)F)c1 (mixture of isomers) [Ex. 139] | 6.25 | >100 | 25.0 | 0.78 | 0.78 | >100 | 100 | 1.56 | 0.78 | 0.39 | >100 | ≦0.10 μg/ml | 0.78 | 1.56 | 100 | –
